Laboratory results published in patent US20220273671A1, “TOPICAL FORMULATIONS FOR TREATMENT OF PERIPHERAL NEUROPATHIES” (priority 2019, published 2022).
In brackets after ≈: the same amount, converted by molar mass.

What was measured:
[1] = molecular target: T1, M1R (Homo sapiens, UniProt P11229); conditions: cited from earlier work
T1 sequence (P11229 1-460): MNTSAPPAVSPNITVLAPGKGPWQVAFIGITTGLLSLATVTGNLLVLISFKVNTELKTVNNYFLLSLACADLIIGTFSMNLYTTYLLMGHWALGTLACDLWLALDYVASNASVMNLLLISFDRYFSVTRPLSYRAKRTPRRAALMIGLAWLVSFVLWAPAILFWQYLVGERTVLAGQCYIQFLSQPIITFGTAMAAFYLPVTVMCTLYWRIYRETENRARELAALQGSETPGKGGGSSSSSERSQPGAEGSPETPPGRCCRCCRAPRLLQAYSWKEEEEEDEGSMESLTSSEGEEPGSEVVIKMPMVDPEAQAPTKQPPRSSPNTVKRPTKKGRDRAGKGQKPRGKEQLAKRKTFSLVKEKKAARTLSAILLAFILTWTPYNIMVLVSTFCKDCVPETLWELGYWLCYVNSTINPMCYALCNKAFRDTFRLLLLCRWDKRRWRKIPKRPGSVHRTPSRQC

[2] = Plasma pharmacokinetics of topical pirenzepine formulations in healthy volunteers, 14 days; conditions: any subject, any time point, any day
Procedure: PK: Blood samples were collected for the determination of pirenzepine concentration at the following nominal times:
Blood samples on Days 1, 7, and 14 were collected via either the indwelling intravenous (IV) cannula to reduce the frequency of direct venipuncture (at the discretion of the Investigator).
A validated liquid chromatography tandem mass-spectroscopy method (LLOQ: 0.1 ng/mL and ULOQ: 200 ng/mL) was used to determine the concentration of pirenzepine in plasma. […] For the pirenzepine concentration analysis in biopsy samples, a qualified method (LLOQ 1.00 mg/mL) was used.
Pirenzepine concentrations in plasma and skin biopsies were evaluated using Phoenix™ WinNonlin® version 8.0 (Pharsight Corporation, USA) and Microsoft® Excel® 2010 (Microsoft Corporation, USA).
Pharmacokinetic Population: According to the statistical analysis plan, the PK population comprised all randomized subjects with evaluable plasma concentrations of pirenzepine (ie, subjects with plasma concentrations considered sufficient and interpretable [at the discretion of the pharmacokineticist]). […] Any exclusion from the PK population was determined by the pharmacokineticist on blinded data, after database lock and prior to unblinding the study. […]
The goodness of fit of the regression was evaluated using the adjusted square of the correlation coefficient (R2 adjusted). […]

[3] = cited from earlier work
[4] = tested on: diabetic mice; conditions: topical; cited from earlier work

For O=C(CCNS(=O)(=O)c1cccc2nsnc12)N1CCN(c2ccncc2)CC1 [VU0255035], the “selectivity to M1R relative to M2, M3, M4 and M5 receptors” value [1] is listed as 75 times.

For O=C1Nc2cccnc2N(C(=O)CN2CCNCC2)c2ccccc21 [desmethyl pirenzepine], the “plasma level of the primary metabolite” value [2] was “not quantifiable”.

For CN1CCN(CC(=O)N2c3ccccc3C(=O)Nc3cccnc32)CC1 [pirenzepine], the “Log P” value [3] is listed as 0.6, the Solubility [3] is listed as 68.2 µg/mL (≈ 194 µM) and the intraepidermal nerve fibers [4] is listed as “prevented and reversed loss of intraepidermal nerve fibers”. For the same compound, the “motor nerve conduction velocity” value [4] was “prevented deficits in motor nerve conduction velocity”, the sub-epidermal nerve plexus [4] was “prevented loss of sub-epidermal nerve plexus” and the tactile allodynia [4] was “prevented tactile allodynia”. The thermal hypoalgesia [4] was “prevented and reversed the development of thermal hypoalgesia”.
